Test results as given in US10928382B2, “Microfluidic device and method for analysis of tumor cell microenvironments” (Northeastern University, priority 2014, dated 2021).

Key:
[1] = tested on: adriamycin sensitive MCF7 cells; assay: LIVE/DEAD viability/cytotoxicity assay, adriamycin sensitive MCF7 cell spheroids in microfluidic device (compared with 2D monolayers); type: cell-based
Protocol: FIGS. 6A and 6B show adriamycin resistant MCF7 cell spheroids at 96 hr incubation without doxorubicin (FIG. 6A) and at 48 hr incubation with 12.8 μM doxorubicin (FIG. 6B). […] FIGS. 6C and 6D show adriamycin sensitive MCF7 cell spheroids at 96 hr incubation without doxorubicin (FIG. 6C) and at 48 hr incubation with 12.8 μM doxorubicin (FIG. 6D).

[2] = tested on: co-cultured MCF7 and HS5 cells; assay: LIVE/DEAD viability assay, co-cultured MCF7 and HS5 fibroblast cell spheroids in microfluidic device; type: cell-based; details: 3D spheroids, doxorubicin 3200 nM and 12800 nM, FIG. 7D
[3] = tested on: adriamycin resistant MCF7 cells; assay: LIVE/DEAD viability/cytotoxicity assay, adriamycin resistant MCF7 cell spheroids in microfluidic device (compared with 2D monolayers)
[4] = 3D spheroids, doxorubicin 800 nM to 12800 nM, FIG. 7C

COc1cccc2c1C(=O)c1c(O)c3c(c(O)c1C2=O)C[C@@](O)(C(=O)CO)C[C@@H]3O[C@H]1C[C@H](N)[C@H](O)[C@H](C)O1 [doxorubicin]
susceptibility to doxorubicin (red fluorescent nuclei staining) versus adriamycin resistant cells ([1]; 3D spheroids, 12.8 μM doxorubicin, 48 hr incubation, FIG. 6D vs 6B): more susceptible to doxorubicin than the adriamycin resistant cells | survival rate in spheroids [1, 4]: high and comparable survival rates | cell viability, 2D monolayers versus 3D spheroids ([1]; doxorubicin 1600 nM to 12800 nM, p<0.05, FIG. 7B): statistically significant difference in cell viability | overall cell survival rate in response to doxorubicin, with fibroblasts versus MCF7 adriamycin sensitive spheroids alone [2]: significant increase in the overall cell survival rate | cell viability, 2D monolayers versus 3D spheroids ([3]; 12.8 μM doxorubicin, p<0.05, cells more susceptible in 2D than 3D, FIG. 7A): statistically significant difference in cell viability | cell toxicity (red fluorescence, LIVE/DEAD assay) ([3]; 3D spheroids, 12.8 μM doxorubicin, 48 hr incubation, FIG. 6B): cell toxicity | survival rate in spheroids [3, 4]: high and comparable survival rates
